Earlier results, collected in US20140205688A1, “STIMULATING AGENT AND STIMULATING COMPOSITION” (priority 2011, published 2014).

Tested on: humans
Settings: humans took in / absorbed the substance

Structure (SMILES)	amplitude of CNV
O=C1CN=C(c2ccccc2)c2cc([N+](=O)[O-])ccc2N1 [Nitrazepam]	declined
Cn1c(=O)c2c(ncn2C)n(C)c1=O [caffeine]	increased
